Source: publication PMC5784132, “Investigation of 20S-hydroxyvitamin D3 analogs and their 1α-OH derivatives as potent vitamin D receptor agonists with anti-inflammatory activities” (Scientific Reports, 2018)

Assays:
rat CYP24A1 = molecular target: T1, rat CYP24A1 (Rattus norvegicus, UniProt Q09128); assay: Time courses and product profiles for metabolism of analogs by rat CYP24A1; format: in vitro ADME
T1 construct: made in house; host or cells: E. coli
T1 sequence (Q09128 36-514): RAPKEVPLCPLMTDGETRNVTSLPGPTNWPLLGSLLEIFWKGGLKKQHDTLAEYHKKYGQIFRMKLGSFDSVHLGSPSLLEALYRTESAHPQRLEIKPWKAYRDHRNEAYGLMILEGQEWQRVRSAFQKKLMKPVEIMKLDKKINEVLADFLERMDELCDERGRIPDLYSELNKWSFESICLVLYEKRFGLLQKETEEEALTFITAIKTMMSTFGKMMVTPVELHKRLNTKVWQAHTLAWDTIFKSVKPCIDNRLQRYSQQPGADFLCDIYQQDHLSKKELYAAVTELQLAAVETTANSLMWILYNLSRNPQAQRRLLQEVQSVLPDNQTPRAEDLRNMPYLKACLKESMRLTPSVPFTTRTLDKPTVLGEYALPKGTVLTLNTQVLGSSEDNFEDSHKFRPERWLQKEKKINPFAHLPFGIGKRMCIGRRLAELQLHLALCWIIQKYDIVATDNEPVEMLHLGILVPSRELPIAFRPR
Text: These were identified from authentic standards as 20S,25(OH)2D3, and the two C24 diastereomers of 20S,24(OH)2D3[23],[27]. One of the C24 diastereomers, 20S,24 R(OH)2D3 is the major product and accounts for almost 70% of the total products. […] There were two major products formed from this analog, RT27 and RT30 (indicated by arrows), which accounted for approximately 20% and 30% of the total products, respectively. Compound 23 (Fig. S1E) was converted to at least 6 different products by the incubation with CYP24A1. In contrast, 13 tested under identical conditions generated only one major product with a retention time of 20 min (RT20) and three minor products (Fig. S1D). By 10 min of incubation, almost all of 13 had been metabolized by CYP24A1.
The activity of CYP24A1 with the different analogs was determined as a function of time to determine the initial linear region that could be used for kinetic studies, and to determine any differences in the pattern between analogs. […] The major product of 13 (Fig. S1C, RT20), accounted for 71% of the total secosteroids (products and substrate) at one min and by 20 min it was 95% of all secosteroids. The time course for 20S(OH)D3 in comparison to 4 and 33, reached maximum product formation early in the incubation, with the amount of product at the end of the incubation being only 2.2-fold higher than at one min. By 20 min, less than 15% of the 20S(OH)D3 had been metabolized. […] While initially being metabolized at the lowest rate of any of the analogs, 33 maintained its initial rate longer with more product being present at the end of the 20 min incubation than for any of the other analogs except 13 (Fig. 6).
Figure 6 Time courses for metabolism of 20S(OH)D3 analogs in phospholipid vesicles by rat CYP24A1. 20S(OH)D3, 4, 13, 23 and 33 were incorporated into phospholipid vesicles at a ratio of 0.018 mol/mol phospholipid and incubated with 0.14 µM rat CYP24A1 at 37 °C. Products were analyzed by HPLC.
Rat CYP24A1, mouse CYP27B1 and adrenodoxin and human adrenodoxin reductase were expressed in E. coli and purified as described before[28],[30],[35]. […] Samples from incubations with CYP24A1 were extracted with dichloromethane and analysed by HPLC using a 25 cm Grace Alltima C18 column, as before[27],[28]. […] Products from incubations with CYP27B1 were similarly extracted with dichloromethane and analyzed by reverse phase HPLC using a 15 cm Grace Smart C18 column and an acetonitrile in water gradient (10 min 45% to 100% acetonitrile then 20 min at 100% acetonitrile, at 0.5 mL/min).
Supplementary Fig. S1. […] Samples were analyzed by reverse-phase HPLC using an acetonitrile in water gradient as described in the Methods. […]

CYP24A1 gene expression = assay: RT-PCR analysis of CYP24A1 expression in HaCaT cells; format: cell-based; settings: Homo sapiens, 100 nM, 24 h treatment, read-out: relative mRNA level for CYP24A1 versus vehicle control
Protocol: Figure 7 20S(OH)D3 analogs upregulate the expression of CYP24A1 encoding the vitamin D catabolic enzyme, CYP24A1, with varying efficiencies. […] The mRNA was isolated and the RT-PCR was performed using specific primers for the CYP24A1 gene (see Methods). Data are presented as mean ± SE (n = 3). *p < 0.05, **p < 0.01 and ***p < 0.001 compared with the control.
HaCaT cells were purchased from Thermo Fisher Scientific (Waltham, MA, USA) and were cultured as for the VDRE reporter assay. The RNA from HaCaT keratinocytes treated with secosteroids or from DMSO controls was isolated using the Absolutely RNA Miniprep Kit (Stratagene, La Jolla, CA, USA). Reverse transcription (100 ng RNA/reaction) was performed with the Transcriptor First Strand cDNA Synthesis Kit (Roche Inc., Mannheim, Germany). Real-time PCR was performed using cDNA diluted 10-fold in sterile water and a SYBR Green PCR Master Mix. The primers for both forward and reverse strands for CYP24A1 were designed based on the mouse and rat sequences using Primer Quest software ([…], San Jose, CA, USA). Reactions (in triplicate) were performed at 50 °C for 2 min, 95 °C for 10 min and then 40 cycles of 95 °C for 15 s, 60 °C for 30 s and 72 °C for 30 s. Data were collected and analyzed on a Roche Light Cycler 480. The amount of the final amplified product for each gene was compared and normalized to the amount of β-actin product as a housekeeping gene using a comparative Ct method.

substrate metabolized by CYP24A1 (rat CYP24A1; by 10 min of incubation) | metabolism by CYP24A1 relative to 20S(OH)D3 (rat CYP24A1; by 20 min, fold greater than 20S(OH)D3) | amount of product at end of incubation relative to one min (rat CYP24A1; 20 min incubation versus one min) | substrate metabolized by CYP24A1 (rat CYP24A1; by 20 min) | SMILES | fold induction at 0.1 µM (CYP24A1 gene expression)
almost all | 6 fold |  |  | C=C1CC[C@H](O)C/C1=C/C=C1\CCC[C@@]2(C)[C@H]1CC[C@@H]2[C@@](C)(O)CCOC(C)C [compound 13] | 0.8
 |  | 2.2 fold | less than 15% | C=C1CC[C@H](O)C/C1=C/C=C1\CCC[C@@]2(C)[C@H]1CC[C@@H]2[C@@](C)(O)CCCC(C)C [20S(OH)D3, 20S-hydroxyvitamin D3] | 4.4
